pEC50, pIC50: −log10 of the molar value.
Legend:
[1] = Inhibition of Hepatitis C virus full-length NS3/4A protease assessed as quenched-fluorogenic RET-S1 substrate cleavage incubated for 10 mins prior to substrate addition by FRET analysis; design: species or system Hepacivirus hominis
Hepatitis C virus = assay: Antiviral activity against Hepatitis C virus infected in human HuH7 cells assessed as inhibition of HCV subgenomic replicon replication after 72 hrs by ELISA; assay type: functional, organism-based, Hepacivirus hominis, Huh-7; settings: Hepatitis C virus, Huh-7, 72 h; read-out: EC50

| SMILES | pIC50 [1] | pEC50 (Hepatitis C virus) |
| --- | --- | --- |
| CC(C)(C)OC(=O)N[C@H]1CCCCC/C=C\[C@@H]2C[C@@]2(C(=O)O)NC(=O)[C@@H]2C[C@@H](OC(=O)N3Cc4ccc(F)cc4C3)CN2C1=O | 7.42 | 5.49 |
| CC(C)(C)OC(=O)N[C@H]1CCCCC/C=C\[C@@H]2C[C@@]2(C(=O)NS(=O)(=O)C2CC2)NC(=O)[C@@H]2C[C@@H](OC(=O)N3Cc4cccc(Cl)c4C3)CN2C1=O | 8.52 | 8.66 |
| CC(C)(C)OC(=O)N[C@H]1CCCCC/C=C\[C@@H]2C[C@@]2(C(=O)NS(=O)(=O)C2CC2)NC(=O)[C@@H]2C[C@@H](OC(=O)N3Cc4cccc(Br)c4C3)CN2C1=O | 8.96 | 7.31 |
| CC(C)(C)OC(=O)N[C@H]1CCCCC/C=C\[C@@H]2C[C@@]2(C(=O)NS(=O)(=O)C2CC2)NC(=O)[C@@H]2C[C@@H](OC(=O)N3Cc4cccc(C(F)(F)F)c4C3)CN2C1=O | 8.92 | 7.54 |
| CC(C)(C)OC(=O)N[C@H]1CCCCC/C=C\[C@@H]2C[C@@]2(C(=O)NS(=O)(=O)C2CC2)NC(=O)[C@@H]2C[C@@H](OC(=O)N3Cc4cccc(N)c4C3)CN2C1=O | 9.70 | 8.39 |
| CC(C)(C)OC(=O)N[C@H]1CCCCC/C=C\[C@@H]2C[C@@]2(C(=O)NS(=O)(=O)C2CC2)NC(=O)[C@@H]2C[C@@H](OC(=O)N3Cc4ccc(F)cc4C3)CN2C1=O | 8.52 | 8.40 |
| CC(C)(C)OC(=O)N[C@H]1CCCCC/C=C\[C@@H]2C[C@@]2(C(=O)NS(=O)(=O)C2CC2)NC(=O)[C@@H]2C[C@@H](OC(=O)N3Cc4ccc(C(F)(F)F)cc4C3)CN2C1=O | 7.68 | 7.70 |
| COc1ccc2c(c1)CN(C(=O)O[C@@H]1C[C@H]3C(=O)N[C@]4(C(=O)NS(=O)(=O)C5CC5)C[C@H]4/C=C\CCCCC[C@H](NC(=O)OC(C)(C)C)C(=O)N3C1)C2 | 8.64 | 7.66 |
| CC(C)(C)OC(=O)N[C@H]1CCCCC/C=C\[C@@H]2C[C@@]2(C(=O)NS(=O)(=O)C2CC2)NC(=O)[C@@H]2C[C@@H](OC(=O)N3Cc4ccc(C#N)cc4C3)CN2C1=O | 8.60 | 6.95 |
| CC(C)(C)OC(=O)N[C@H]1CCCCC/C=C\[C@@H]2C[C@@]2(C(=O)NS(=O)(=O)C2CC2)NC(=O)[C@@H]2C[C@@H](OC(=O)N3Cc4ccc(Cl)cc4C3)CN2C1=O | 8.70 | 8.04 |
| CC(C)(C)OC(=O)N[C@H]1CCCCC/C=C\[C@@H]2C[C@@]2(C(=O)NS(=O)(=O)C2CC2)NC(=O)[C@@H]2C[C@@H](OC(=O)N3Cc4ccc(N)cc4C3)CN2C1=O | 8.82 | 7.38 |
| CC(C)(C)OC(=O)N[C@H]1CCCCC/C=C\[C@@H]2C[C@@]2(C(=O)NS(=O)(=O)C2CC2)NC(=O)[C@@H]2C[C@@H](OC(=O)N3Cc4c(F)ccc(F)c4C3)CN2C1=O | 9.15 | 8.29 |
| CC(C)(C)OC(=O)N[C@H]1CCCCC/C=C\[C@@H]2C[C@@]2(C(=O)NS(=O)(=O)C2CC2)NC(=O)[C@@H]2C[C@@H](OC(=O)N3Cc4c(Cl)ccc(Cl)c4C3)CN2C1=O | 8.77 | 8.14 |
| CC(C)(C)OC(=O)N[C@H]1CCCCC/C=C\[C@@H]2C[C@@]2(C(=O)NS(=O)(=O)C2CC2)NC(=O)[C@@H]2C[C@@H](OC(=O)N3CCc4cccc(F)c4C3)CN2C1=O | 8.96 | 7.92 |
| CC(C)(C)OC(=O)N[C@H]1CCCCC/C=C\[C@@H]2C[C@@]2(C(=O)NS(=O)(=O)C2CC2)NC(=O)[C@@H]2C[C@@H](OC(=O)N3CCc4cccc(Cl)c4C3)CN2C1=O | 8.68 | 7.37 |
| CC(C)(C)OC(=O)N[C@H]1CCCCC/C=C\[C@@H]2C[C@@]2(C(=O)NS(=O)(=O)C2CC2)NC(=O)[C@@H]2C[C@@H](OC(=O)N3CCc4cccc(C(F)(F)F)c4C3)CN2C1=O | 9.10 | 7.89 |

| SMILES | pIC50 [1] | pEC50 (Hepatitis C virus) |
| --- | --- | --- |
| CC(C)(C)OC(=O)N[C@H]1CCCCC/C=C\[C@@H]2C[C@@]2(C(=O)NS(=O)(=O)C2CC2)NC(=O)[C@@H]2C[C@@H](OC(=O)N3CCc4c(F)ccc(F)c4C3)CN2C1=O | 8.92 | 7.62 |
| CC(C)(C)OC(=O)N[C@H]1CCCCC/C=C\[C@@H]2C[C@@]2(C(=O)O)NC(=O)[C@@H]2C[C@@H](OC(=O)N3Cc4ccccc4C3)CN2C1=O | 7.96 | 5.81 |
| CC(C)(C)OC(=O)N[C@H]1CCCCC/C=C\[C@@H]2C[C@@]2(C(=O)O)NC(=O)[C@@H]2C[C@@H](OC(=O)N3Cc4cccc(Cl)c4C3)CN2C1=O | 7.89 | 6.29 |
| CC(C)(C)OC(=O)N[C@H]1CCCCC/C=C\[C@@H]2C[C@@]2(C(=O)O)NC(=O)[C@@H]2C[C@@H](OC(=O)N3Cc4cccc(F)c4C3)CN2C1=O | 8.00 | 5.90 |
| CC(C)(C)OC(=O)N[C@H]1CCCCC/C=C\[C@@H]2C[C@@]2(C(=O)O)NC(=O)[C@@H]2C[C@@H](OC(=O)N3Cc4ccc(C(F)(F)F)cc4C3)CN2C1=O | 6.71 | 5.12 |
| CC(C)(C)OC(=O)N[C@H]1CCCCC/C=C\[C@@H]2C[C@@]2(C(=O)O)NC(=O)[C@@H]2C[C@@H](OC(=O)N3Cc4ccc(Cl)cc4C3)CN2C1=O | 6.96 | 5.50 |
| CC(C)(C)OC(=O)N[C@H]1CCCCC/C=C\[C@@H]2C[C@@]2(C(=O)O)NC(=O)[C@@H]2C[C@@H](OC(=O)N3Cc4cc(Cl)c(Cl)cc4C3)CN2C1=O | 6.32 | 4.60 |
| CC(C)(C)OC(=O)N[C@H]1CCCCC/C=C\[C@@H]2C[C@@]2(C(=O)O)NC(=O)[C@@H]2C[C@@H](OC(=O)N3Cc4c(Cl)ccc(Cl)c4C3)CN2C1=O | 7.68 | 5.83 |
| CC1CN(C(=O)O[C@@H]2C[C@H]3C(=O)N[C@]4(C(=O)NS(=O)(=O)C5CC5)C[C@H]4/C=C\CCCCC[C@H](NC(=O)OC(C)(C)C)C(=O)N3C2)Cc2ccccc21 (some centres not stated) | 9.00 | 8.24 |
| CC(C)(C)OC(=O)N[C@H]1CCCCC/C=C\[C@@H]2C[C@@]2(C(=O)NS(=O)(=O)C2CC2)NC(=O)[C@@H]2C[C@@H](OC(=O)N3Cc4ccccc4C(C)(C)C3)CN2C1=O | 9.10 | 8.11 |
| CC(C)(C)OC(=O)N[C@H]1CCCCC/C=C\[C@@H]2C[C@@]2(C(=O)NS(=O)(=O)C2CC2)NC(=O)[C@@H]2C[C@@H](OC(=O)N3CCc4c(F)cccc4C3)CN2C1=O | 9.15 | 7.92 |
| CN(C)c1cccc2c1CCN(C(=O)O[C@@H]1C[C@H]3C(=O)N[C@]4(C(=O)NS(=O)(=O)C5CC5)C[C@H]4/C=C\CCCCC[C@H](NC(=O)OC(C)(C)C)C(=O)N3C1)C2 | 8.62 | 7.70 |
| CC(C)(C)OC(=O)N[C@H]1CCCCC/C=C\[C@@H]2C[C@@]2(C(=O)NS(=O)(=O)C2CC2)NC(=O)[C@@H]2C[C@@H](OC(=O)N3CCc4cc(F)ccc4C3)CN2C1=O | 8.70 | 7.96 |
| CC(C)(C)OC(=O)N[C@H]1CCCCC/C=C\[C@@H]2C[C@@]2(C(=O)NS(=O)(=O)C2CC2)NC(=O)[C@@H]2C[C@@H](OC(=O)N3CCc4cc(C(F)(F)F)ccc4C3)CN2C1=O | 8.59 | 7.46 |
| CC(C)(C)OC(=O)N[C@H]1CCCCC/C=C\[C@@H]2C[C@@]2(C(=O)NS(=O)(=O)C2CC2)NC(=O)[C@@H]2C[C@@H](OC(=O)N3CCc4ccc(Cl)cc4C3)CN2C1=O | 8.39 | 7.19 |
